In assay [1] the target is CREBBP bromodomain (His-CREBBP(1081-1197)) (Homo sapiens (Human), UniProt Q92793). The assay is described as follows: AlphaScreen in-vitro binding assay for CREBBP. The note with it: AlphaScreen, acetyl-histone H4 peptide; read-out: CREBBP IC50. On the procedure:
AlphaScreen In-Vitro Binding Assay for CREBBP
In order to assess bromodomain selectivity, we set up a binding assay using the bromodomain encoded by the CREBBP gene. […] Reactions were incubated at 30° C. for 35 minutes. Subsequently 4.5 μl per well detection mix (50 mM HEPES, pH 7.5, 0.005% Tween20, 0.02% BSA, 150 mM NaCl, 45 μg/ml Ni-chelate acceptor beads, 45 μg/ml streptavidin-donor beads) (Perkin Elmer)) were added. After 60 minutes incubation at room temperature, plates were measured in a Perkin Elmer EnVision multilabel reader. IC50 values were determined from percent inhibition values at different compound concentrations by non-linear regression analysis.
(§1) Preparation of Compound Dilutions
(§2) Test compounds were dissolved in DMSO (10 mM) and transferred into 1.4 mL flat bottom or V-shaped Matrix tubes carrying a unique 2D matrix. The stock solutions were stored at […] if not used immediately. For the test procedure the vials were defrosted and identified by a scanner whereby a working sheet was generated that guided the subsequent working steps. Compound dilutions were made in 96 well plates. This format enabled the assay of maximally 40 individual test compounds at 8 concentrations (single points) including 4 reference compounds, if desired (known BET inhibitors from the prior art, for this and other assays of the type disclosed herein). The dilution protocol included the production of “pre-dilution plates”, “master plates” and “assay plates”.
(§3) Pre-dilution plates: 96 polypropylene well plates were used as pre-dilution plates. A total of 4 pre-dilution plates were prepared including 10 test compounds each on the plate positions A1-A10, one standard compound at A11 and one DMSO control at A12. All dilution steps were done on a HamiltonSTAR robot.
(§4) These plates were used directly for the assay which was performed in a total volume of 13.55 μL.

The target of assay [2] is BRD2 (His-Brd2(60-472)) (Homo sapiens (Human), UniProt P25440). The assay is described as follows: TR-FRET in-vitro binding assay for BRD2. The conditions noted are these: acetyl-histone H4 peptide. On the procedure:
(§5) TR-FRET In-Vitro Binding Assays for BRD2, BRD3, and BRD4:
(§6) All assays were performed in 384 well microtiter plates. Each assay plate contained 8-point serial dilutions for 40 test compounds, plus 16 high- and 16 low controls. Liquid handling and incubation steps were done on an Innovadyne Nanodrop Express equipped with a robotic arm (Thermo CatX, Perkin Elmer/Caliper Twister II) and an incubator (Liconic STX40, Thermo Cytomat 2C450). The assay plates were prepared by addition of 50 nl per well of compound solution in 90% DMSO HummingBird nanodispenser (Zinsser Analytic). The assay was started by stepwise addition of 4.5 μl per well of bromo domain protein (50 mM HEPES, pH 7.5, 0.005% Tween20, 0.1% BSA, 50 mM NaCl, 45 nM His-Brd2(60-472) or 45 nM His-Brd3(20-477) or 45 nM His-Brd4(44-477) all proteins produced in-house) and 4.5 μl per well of peptide solution (50 mM HEPES, pH 7.5, 0.005% Tween20, 0.1% BSA, 50 mM NaCl, 60 nM acetyl-histone H4 (AcK 5, 8, 12, 16) (Biosyntan GmbH)). Reactions were incubated at 30° C. for 35 minutes. […] After 35 minutes incubation at 30° C., plates were measured in a Perkin Elmer EnVision multilabel reader. Concentrations causing 50% inhibition (IC50 values) were determined from percent inhibition values at different compound concentrations by non-linear regression analysis.
as §1, §2, §3
(§7) Master plates: 30 μL of individual compound dilutions including standard compound and controls of the 4 “pre-dilution plates” were transferred into a 384 “master plate” including the following concentrations 10000, 3003, 1000, 300, 100, 30, 10 and 3 μM, respectively in 90% of DMSO.
(§8) Assay plates: Identical “assay plates” were then prepared by pipetting 50 nL each of compound dilutions of the “master plates” into 384-well “assay plates” by means of a HummingBird 384-channel dispenser. These plates were used directly for the assay which was performed in a total volume of 13.55 μL. This led to a final compound concentration of 37, 11, 3.7, 1.1, 0.37, 0.11, 0.037 and 0.011 μM and a final DMSO concentration of 0.37% in the assay.
(In general: In TR-FRET formats the signal depends on donor and acceptor labels being close together.)

In assay [3] the target is BRD4 (His-Brd4(44-477)) (Homo sapiens (Human), UniProt O60885). Put plainly: TR-FRET in-vitro binding assay for BRD4. The conditions noted are these: acetyl-histone H4 peptide. The protocol: as §5, §6, §1, §2, §3, §7, §8
For assay [4], the target named is BRD3 (His-Brd3(20-477)) (Homo sapiens (Human), UniProt Q15059). The assay is described as follows: TR-FRET in-vitro binding assay for BRD3. The note with it: acetyl-histone H4 peptide. On the procedure: as §5
Chain of BRD3 (His-Brd3(20-477)) (Q15059 20-477): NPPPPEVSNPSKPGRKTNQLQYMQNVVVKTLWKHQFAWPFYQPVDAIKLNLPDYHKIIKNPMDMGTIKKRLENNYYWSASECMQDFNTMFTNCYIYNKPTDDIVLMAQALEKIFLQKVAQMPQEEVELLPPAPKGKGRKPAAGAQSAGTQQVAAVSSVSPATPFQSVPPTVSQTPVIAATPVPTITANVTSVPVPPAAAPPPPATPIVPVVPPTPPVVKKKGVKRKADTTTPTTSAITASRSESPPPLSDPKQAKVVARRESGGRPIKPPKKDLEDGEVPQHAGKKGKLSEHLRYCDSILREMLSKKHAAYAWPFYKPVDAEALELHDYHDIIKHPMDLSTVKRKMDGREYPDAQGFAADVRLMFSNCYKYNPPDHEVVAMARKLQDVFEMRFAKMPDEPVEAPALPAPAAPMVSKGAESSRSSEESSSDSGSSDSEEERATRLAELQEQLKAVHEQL
All assays were performed in 384 well microtiter plates. Each assay plate contained 8-point serial dilutions for 40 test compounds, plus 16 high- and 16 low controls. Liquid handling and incubation steps were done on an Innovadyne Nanodrop Express equipped with a robotic arm (Thermo CatX, Perkin Elmer/Caliper Twister II) and an incubator (Liconic STX40, Thermo Cytomat 2C450). The assay plates were prepared by addition of 50 nl per well of compound solution in 90% DMSO HummingBird nanodispenser (Zinsser Analytic). […] Reactions were incubated at 30° C. for 35 minutes. […] After 35 minutes incubation at 30° C., plates were measured in a Perkin Elmer EnVision multilabel reader.
as §1, §2, §3, §4

The subject of assay [5] is MV-4-11 cells. Put plainly: Cell growth inhibition assay (CellTiter-Glo), MV-4-11. The conditions noted are these: MV-4-11, 4 days; for GI50: Homo sapiens, MV4-11, 96 h, half-maximal growth inhibition; for MV-4-11 TGI: total growth inhibition. It counts as cell-based, human. The protocol: (§9) Cell Growth Inhibition Assay
(§10) The human leukemia cell lines MV-4-11, THP-1 and K-562 were employed to characterize the effect of BET inhibitors on cellular proliferation and viability. Cells were obtained from the American Type Culture Collection (ATCC) and cultured at 37° C. in a humidified 5% CO2 incubator in the following media: MV-4-11: DMEM high glucose (Animed #1-26F01-I), 10% FCS (Animed #2-01F26-I), 4 mM L-Glutamine (Animed #5-10K50), 1 mM Sodium Pyruvate (Animed #G03625P), lx Penicillin-Streptomycin (Animed #F12478P); K-562: Iscove's MEM (Animed #1-28F16-I), 10% FCS (Animed #2-01F26-I), 4 mM L-Glutamine (Animed #5-10K50), 1× Penicillin-Streptomycin (Animed #F12478P); THP-1: RPMI-1640 (Animed #1-41F01-I), 10% FCS (Animed #2-01F26-I), 2 mM L-Glutamine (Animed #5-10K50), 10 mM HEPES (Animed #5-31F100), 1 mM Sodium Pyruvate (Animed #G03625P), 1× Penicillin-Streptomycin (Animed #F12478P). The AML lines MV-4-11 and THP-1 are very sensitive to BET inhibitors and show massive cell death upon BET inhibition (Zuber et al., Nature, 478 (2011), 524-8). Compound-mediated suppression of cell proliferation/viability was assessed by quantification of cellular ATP levels using the CellTiter-Glo (CTG) reagent (Promega). Briefly, cells were seeded in 20 μl fresh medium into 384-well plates, followed by addition of 5 μl medium containing compound dilutions at 5-fold their final intended concentration. Dose-response effects were assessed by 3-fold serial dilutions of the test compound, starting at 10 μM. Following incubation of the cells for 4 days at 37° C. and 5% CO2, the effect of inhibitors on cell viability was quantified following addition of 20 μl CTG and luminescence quantification (integration time: 100 ms) as per vendor manual, using a correspondingly equipped Tecan M200 multi-mode platereader (TECAN, Switzerland). For data analysis, the assay background value determined in wells containing medium, but no cells, was subtracted from all data points. To enable differentiation of cytotoxic from cytostatic compounds, the number of viable cells is assessed relative to that observed at the time of compound addition using a separate cell plate (day 0). The effect of a particular test compound concentration on cell proliferation/viability is expressed as percentage of the background- and day 0-corrected luminescence reading obtained for cells treated with vehicle only (DMSO, 0.1% final concentration), which is set as 100%, whereas that luminescence reading for wells containing medium is set as −100%. Compound concentrations leading to half-maximal (IC50) and total growth inhibition (TGI) were determined using standard four parameter curve fitting.
Background: In ATP-based viability assays light output follows the ATP content of the culture.

For assay [6], the system named is THP-1 cells. The assay is described as follows: Cell growth inhibition assay (CellTiter-Glo), THP-1. The note with it: THP-1, 4 days; for GI50: Homo sapiens, 96 h, half-maximal growth inhibition; for THP-1 TGI: total growth inhibition. It counts as cell-based, human. The protocol:
as §9, §10

For assay [7], the system named is K-562 cells. Put plainly: Cell growth inhibition assay (CellTiter-Glo), K-562. The note with it: K-562, 4 days; for GI50: Homo sapiens, K562, 96 h, half-maximal growth inhibition; for K-562 TGI: total growth inhibition. It counts as cell-based, human. On the procedure: as §9, §10

Molecules are shown by their SMILES. Some results are limits rather than exact numbers.

The IC50 is the concentration that gives 50% inhibition. In general, GI50 refers to the concentration at which growth is held to half of that of the control.

Chain of CREBBP bromodomain (His-CREBBP(1081-1197)) (Q92793 1081-1197): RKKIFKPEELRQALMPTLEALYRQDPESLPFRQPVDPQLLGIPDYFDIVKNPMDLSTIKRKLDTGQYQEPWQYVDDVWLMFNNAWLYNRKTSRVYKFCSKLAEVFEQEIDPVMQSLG
Chain of BRD2 (His-Brd2(60-472)) (P25440 60-472): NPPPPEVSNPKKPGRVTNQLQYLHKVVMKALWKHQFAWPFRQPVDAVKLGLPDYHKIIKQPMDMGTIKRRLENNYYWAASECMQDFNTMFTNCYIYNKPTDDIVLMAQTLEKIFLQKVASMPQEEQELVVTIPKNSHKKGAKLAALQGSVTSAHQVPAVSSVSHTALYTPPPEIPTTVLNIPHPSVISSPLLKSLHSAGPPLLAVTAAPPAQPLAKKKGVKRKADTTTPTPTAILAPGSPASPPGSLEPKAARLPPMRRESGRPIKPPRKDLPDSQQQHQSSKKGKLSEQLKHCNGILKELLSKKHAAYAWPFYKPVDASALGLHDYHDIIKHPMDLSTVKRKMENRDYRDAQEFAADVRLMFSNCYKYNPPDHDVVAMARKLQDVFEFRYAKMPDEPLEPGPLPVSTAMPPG

On to `COc1cc(N2C(=O)c3c(C4CC4)nn(C)c3[C@H]2c2ccc(Cl)cc2)cn2c(C)nnc12` [Example 14, (R)-6-(4-chlorophenyl)-3-cyclopropyl-5-(8-methoxy-3-methyl-[1,2,4]triazolo[4,3-a]-pyridin-6-yl)-1-methyl-5,6-dihydropyrrolo[3,4-c]pyrazol-4(1H)-one], for which the IC50 turned out to be 27500 nM in assay [1], 57 nM in assay [2], 30 nM in assay [3] and 55 nM in assay [4]. Further, the values for the GI50 in assay [5], in assay [6] and in assay [7] were 20.1 nM, 51.4 nM and 152 nM, respectively. Further, the “MV-4-11 TGI” value in assay [5] amounted to 39.55 nM. Moreover, the “THP-1 TGI” value in assay [6] came to 118.5 nM. Further, in assay [7], the “K-562 TGI” value was more than 10000 nM.

For `COCCn1nc(C2CC2)c2c1[C@@H](c1ccc(Cl)cc1)N(c1cc(C)c3nnc(C)n3c1)C2=O` [Example 15, (R)-6-(4-chlorophenyl)-3-cyclopropyl-5-(3,8-dimethyl-[1,2,4]triazolo[4,3-a]pyridin-6-yl)-1-(2-methoxyethyl)-5,6-dihydropyrrolo[3,4-c]pyrazol-4(1H)-one], the IC50 is 6100 nM in assay [1], 20 nM in assay [2], 18 nM in assay [3] and 16 nM in assay [4]. Further, the GI50 in assay [5] was 2.41 nM; in assay [6], 6.42 nM; in assay [7] it was 26.5 nM. For the same compound, the “MV-4-11 TGI” value in assay [5] came to 5.79 nM. For the same compound, in assay [6], the “THP-1 TGI” value was determined as 13.9 nM. The “K-562 TGI” value in assay [7] was more than 10000 nM.

As for `Cc1cc(N2C(=O)c3c(C4CC4)nn(C)c3[C@H]2c2ccc(Cl)cc2)cn2c(CF)nnc12` [Example 17, (R)-6-(4-chlorophenyl)-3-cyclopropyl-5-(3-(fluoromethyl)-8-methyl-[1,2,4]triazolo-[4,3-a]pyridin-6-yl)-1-methyl-5,6-dihydropyrrolo[3,4-c]pyrazol-4(1H)-one], the IC50 in assay [1] is 9800 nM; in assay [2] it was 11 nM; in assay [3], less than 11 nM; in assay [4] it was less than 11 nM. Further, the GI50 in assay [5] was 4.28 nM; in assay [6], 9.68 nM; in assay [7], 63.1 nM. Besides, the “MV-4-11 TGI” value in assay [5] was 9.765 nM. In addition, the “THP-1 TGI” value in assay [6] was determined as 24.7 nM. Further, the “K-562 TGI” value in assay [7] is more than 10000 nM.

Turning to `Cc1cc(N2C(=O)c3c(C4CC4)nn(C[C@@H](O)C(F)(F)F)c3[C@H]2c2ccc(Cl)cc2)cn2c(C)nnc12` [Example 19, (R)-6-(4-chlorophenyl)-3-cyclopropyl-5-(3,8-dimethyl-[1,2,4]triazolo[4,3-a]pyridin-6-yl)-1-((R)-3,3,3-trifluoro-2-hydroxypropyl)-5,6-dihydropyrrolo[3,4-c]pyrazol-4(1H)-one], the IC50 in assay [1] is 9400 nM; in assay [2], 29 nM; in assay [3], 23 nM; in assay [4], 25 nM. Besides, the GI50 in assay [5] stood at 5.23 nM; in assay [6], 14.7 nM; in assay [7], 58.4 nM. The “MV-4-11 TGI” value in assay [5] came to 11.3 nM. In addition, the “THP-1 TGI” value in assay [6] came to 36.6 nM. Moreover, the “K-562 TGI” value in assay [7] is more than 10000 nM.

With `Cc1cc(N2C(=O)c3c(C4CC4)nn(C[C@H](O)C(F)(F)F)c3[C@H]2c2ccc(Cl)cc2)cn2c(C)nnc12` [Example 20, (R)-6-(4-chlorophenyl)-3-cyclopropyl-5-(3,8-dimethyl-[1,2,4]triazolo[4,3-a]pyridin-6-yl)-1-((S)-3,3,3-trifluoro-2-hydroxypropyl)-5,6-dihydropyrrolo[3,4-c]pyrazol-4(1H)-one], the IC50 in assay [1] was 7900 nM; in assay [2], 13 nM; in assay [3] it was 15 nM; in assay [4], 12 nM. The GI50 in assay [5] was found to be 6.47 nM; in assay [6], 20.9 nM; in assay [7], 96 nM. Also, in assay [5], the “MV-4-11 TGI” value turned out to be 16.1 nM. The “THP-1 TGI” value in assay [6] came to 44.7 nM. In assay [7], the “K-562 TGI” value is more than 10000 nM.

The record behind these values is patent US9624247B2, “Pyrazolo-pyrrolidin-4-one derivatives as bet inhibitors and their use in the treatment of disease” (NOVARTIS AG, priority 2013, dated 2017).
